The source of these data is EP3046573B1, “AMYLIN ANALOGUES” (Zealand Pharma A/S, priority 2013, dated 2015).

Data set [1] in a line: Pharmacokinetics of test compounds in mice. The class given is in vivo. The note with it: female, NMRI, mouse, plasma; for bioavailability: AUCinf (sc) / AUCinf (iv) x 100, 100 nmol/kg (Pramlintide 400 nmol/kg); for half-life: 100 nmol/kg (Pramlintide 400 nmol/kg). The method, then: NMRI mice (supplier: Taconic; females with a body weight of approximately 25 g) were given either a single subcutaneous (sc) bolus or a single intravenous (iv) bolus of each peptide to be tested.
Following sc administration of test peptide (Compound 176, 1 or 18) (100 nmol/kg), blood samples were drawn 0.5, 2, 4, 8, 18, 40 and 56 hours post-dosing by eye bleeding. Following iv administration of Compound 176, 1 or 18 (100 nmol/kg), blood samples were drawn 0.08, 0.17, 0.5, 2, 8, 18 and 30 hours post-dosing by eye bleeding. The dosing vehicle used for each test peptide was a mannitol-containing histidine buffer (pH 7.0).
Pramlintide (400 nmol/kg) was also administered as a single sc bolus or as a single iv bolus to mice. Following sc administration, blood samples were drawn 5, 15, 20, 30, 60, 120, 180 and 240 minutes post-dosing by sublingual bleeding. Following iv administration, blood samples were drawn 5, 10, 15, 30, 60, 120, 180, and 240 minutes post-dosing by sublingual bleeding. The dosing vehicle used for Pramlintide was a mannitol-containing acetate buffer (pH 4.0).
Blood samples were taken from two mice at each time point, i.e. 14-16 mice were included for each compound. The mice were euthanized immediately after blood sampling by cervical dislocation. Plasma samples were analyzed after solid-phase extraction (SPE) by liquid chromatography mass spectrometry (LC-MS/MS). Mean plasma concentrations were used for calculation of the pharmacokinetic parameters using the non-compartmental approach in Phoenix WinNonlin 6.3.
Plasma terminal elimination half-life (t½) was determined as In(2)/λz, where λz is the magnitude of the slope of the log linear regression of the log concentration versus time profile during the terminal phase.
Bioavailability was determined as AUCinf (sc) / AUCinf (iv) x 100, where AUCinf is the area under the plasma concentration - time curve extrapolated to infinity (AUCinf = AUClast + Clast/λz, where Clast is the last observed plasma concentration).

A short description of data set [2]: Assessment of chemical stability: normalized purity by RP-HPLC after incubation at 40 °C. The format is physicochemical. The note with it: normalized purity (T=0 set to 100), 0.2 mg/ml. Put shortly: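 Peptides at 0.2 mg/ml in water adjusted to pH 4, 7.5 or 9, held at 40 °C for 7 days. Purity by RP-HPLC (C8/ammonium formate or C18/TFA gradients), UV 220 nm, as main-peak area-%; normalized to T=0 set as 100 for each pH.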

Data set [3] is described as follows: Pharmacokinetic (PK) profiling in rats. The format is in vivo. The note with it: male, Sprague Dawley, rat, plasma, single sc bolus, 100 nmol/kg (18, NN96), 20 nmol/kg (72, 76), 30 nmol/kg (73, 82, 118, 162, 166, 172). The procedure:
Sprague Dawley male rats were given a single subcutaneous (sc) bolus of each peptide to be tested at doses as specified below..
Study A: Following the administration of a 100 nmol/kg dose of a test peptide of the invention (Compound 18) and a comparison pramlintide analogue NN96 (see Example 5, above), respectively, blood samples were drawn from the tail vein at 0.5, 3, 8, 15, 36, 60 and 81 hours post-dosing. 4 rats were used (2 rats per compound). The rats were euthanized immediately after the last blood sampling by overdose of O2/CO2.
Study B: 20 nmol/kg doses of Compound 72 and Compound 76, respectively, of the invention were administered. Blood samples were drawn by sublingual bleeding prior to dosing and at 2, 6, 12, 24, 48, 72 and 96 hours after dosing. 4 rats were used (2 rats per compound). The rats were euthanized immediately after the last blood sampling by overdose of O2/CO2.
Study C: 30 nmol/kg doses of Compound 73, Compound 82 and Compound 118, respectively, of the invention were administered. Blood samples were drawn from the tail vein prior to dosing and at 24, 48, 72 and 96 hours after dosing. Blood samples were taken from two rats at each time point, and only 2 blood samples were drawn from each rat, i.e. 8 rats were used for each compound. The rats were euthanized immediately after the last blood sampling by concussion and cervical dislocation.
Study D: 30 nmol/kg doses of Compound 162, Compound 166 and Compound 172 were administered. Blood samples were drawn from the tail vein prior to dosing and at 24, 48, 72, 96 and 168 hours after dosing. Blood samples were taken from two rats at each time point, and only 2 blood samples were drawn from each rat, i.e. 10 rats were used for each compound. The rats were euthanized immediately after the last blood sampling by concussion and cervical dislocation.
The dosing vehicle used for each test peptide was a mannitol-containing histidine buffer (pH 7.0). Plasma samples were analyzed after precipitation with ethanol by liquid chromatography mass spectrometry (LC-MS/MS). Mean plasma concentrations were used for calculation of the pharmacokinetic parameters using the non-compartmental approach in Phoenix WinNonlin 6.3.
Plasma terminal elimination half-life (t½) was determined as In(2)/λz, where λz is the magnitude of the slope of the log linear regression of the log concentration versus time profile during the terminal phase. Apparent clearance (CL/F) was determined as dose/AUCinf (sc), where AUCinf is the area under the plasma concentration vs. time curve extrapolated to infinity (AUCinf = AUClast + Clast/λz, where Clast is the last observed plasma concentration).

Where [4] appears, read: single iv bolus, read-out: t½ (hours) iv (converted).
The mark [5] stands for this setting: single sc bolus, read-out: t½ (hours) sc (converted).

Usually bioavailability stands for dose-corrected exposure relative to a reference, in per cent. Higher therefore signals good availability. As a reminder, the CL/F is the apparent clearance, not corrected for the fraction that reaches the circulation.

Numbered stars: 1 amine (or outer) side, 2 acyl side, 3 side chain; on linkers, the order of the positions; unused ones are H or OH. Bridge positions count the residues as written; N and C are the ends. Square brackets hold non-standard residues; d marks the D form. Peptide text beside a SMILES is read from it. * marks the point of attachment. C20 diacid = O=C(O)CCCCCCCCCCCCCCCCCCC(=O)*; γGlu = O=C(O)[C@H](CCC(=O)[*:2])N[*:1]; NMeI = CC[C@H](C)[C@H](NC)C(=O)O; Sar = CNCC(=O)O

`CC[C@H](C)[C@@H](C(=O)N[C@@H](CC(C)C)C(=O)N[C@@H](CO)C(=O)N[C@@H](CO)C(=O)N[C@H](C(=O)N[C@@H](CC(N)=O)C(=O)N[C@H](C(=O)NCC(=O)N[C@@H](CO)C(=O)N[C@@H](CC(N)=O)C(=O)N[C@H](C(=O)N1CCC[C@H]1C(N)=O)[C@@H](C)O)C(C)C)[C@@H](C)O)N(C)C(=O)[C@H](C)NC(=O)CN(C)C(=O)[C@H](Cc1ccccc1)NC(=O)[C@H](CC(N)=O)NC(=O)[C@H](CC(N)=O)NC(=O)[C@H](CO)NC(=O)[C@H](CO)NC(=O)[C@H](Cc1c[nH]cn1)NC(=O)[C@H](Cc1c[nH]cn1)NC(=O)[C@H](CC(C)C)NC(=O)[C@H](Cc1ccccc1)NC(=O)[C@H](CCC(=O)O)NC(=O)[C@H](C)NC(=O)[C@H](CC(C)C)NC(=O)[C@H](CCCNC(=N)N)NC(=O)[C@H](CCC(N)=O)NC(=O)[C@@H](NC(=O)[C@H](C)NC(=O)[C@@H]1CSSC[C@H](NC(=O)[C@H](CCCNC(=N)N)NC(=O)CC[C@H](NC(=O)CCCCCCCCCCCCCCCCCCC(=O)O)C(=O)O)C(=O)N[C@@H](CC(N)=O)C(=O)N[C@@H]([C@@H](C)O)C(=O)N[C@@H](C)C(=O)N[C@@H]([C@@H](C)O)C(=O)N1)[C@@H](C)O` [Compound 1, [19CD]-isoGlu-RC()NTATC()ATQRLAEFLHHSSNNF-Gly(Me)-A-Ile(Me)-LSSTNVGSNTP-NH2] ({C20 diacid-γGlu}-RCNTATCATQRLAEFLHHSSNNF[Sar]A[NMeI]LSSTNVGSNTP-NH2; disulfide 2-7): the bioavailability in data set [1] stood at 77%. In addition, the results for the half-life in data set [1] (setting [4]) and in data set [1] (setting [5]) were 32.9 h and 34.6 h, respectively. The “Chem. stability; 7 days, 40°C pH 4” value in data set [2] (pH 4, 7 days) was 89 area-%. The “Chem. stability; 7 days, 40°C pH 7.5” value in data set [2] (pH 7.5, 7 days) amounted to 64 area-%. The “Chem. stability; 7 days, 40°C pH 9” value in data set [2] (pH 9, 7 days) is 56 area-%.

For the compound `CC[C@H](C)[C@@H](C(=O)N[C@@H](CC(C)C)C(=O)N[C@@H](CO)C(=O)N[C@@H](CO)C(=O)N[C@H](C(=O)N[C@@H](CC(N)=O)C(=O)N[C@H](C(=O)NCC(=O)N[C@@H](CO)C(=O)N[C@@H](CC(N)=O)C(=O)N[C@H](C(=O)N1CCC[C@H]1C(N)=O)[C@@H](C)O)C(C)C)[C@@H](C)O)N(C)C(=O)[C@H](C)NC(=O)CN(C)C(=O)[C@H](Cc1ccccc1)NC(=O)[C@H](CC(N)=O)NC(=O)[C@H](CC(N)=O)NC(=O)[C@H](CO)NC(=O)[C@H](CO)NC(=O)[C@H](CCCNC(=N)N)NC(=O)[C@H](Cc1c[nH]cn1)NC(=O)[C@H](CC(C)C)NC(=O)[C@H](Cc1ccccc1)NC(=O)[C@H](CCC(=O)O)NC(=O)[C@H](C)NC(=O)[C@H](CC(C)C)NC(=O)[C@H](CCCNC(=N)N)NC(=O)[C@H](CCC(N)=O)NC(=O)[C@@H](NC(=O)[C@H](C)NC(=O)[C@@H]1CSSC[C@H](NC(=O)[C@H](CCCNC(=N)N)NC(=O)CC[C@H](NC(=O)CCCCCCCCCCCCCCCCCCC(=O)O)C(=O)O)C(=O)N[C@@H](CC(N)=O)C(=O)N[C@@H]([C@@H](C)O)C(=O)N[C@@H](C)C(=O)N[C@@H]([C@@H](C)O)C(=O)N1)[C@@H](C)O` [Compound 18, [19CD]-isoGlu-RC()NTATC()ATQRLAEFLHRSSNNF-Gly(Me)-A-Ile(Me)-LSSTNVGSNTP-NH2] ({C20 diacid-γGlu}-RCNTATCATQRLAEFLHRSSNNF[Sar]A[NMeI]LSSTNVGSNTP-NH2; disulfide 2-7), the bioavailability in data set [1] was 79%. For the same compound, the half-life is 20.8 h in data set [1] (setting [4]); 22.8 h in data set [1] (setting [5]); 37.6 h in data set [3] (terminal elimination half-life, read-out: t½ (converted)). For the same compound, the apparent clearance CL/F in data set [3] (apparent clearance) was 3.48 mL/h/kg.

As for `CC[C@H](C)[C@@H](C(=O)N[C@@H](CC(C)C)C(=O)N1CCC[C@H]1C(=O)N1CCC[C@H]1C(=O)N[C@H](C(=O)N[C@@H](CC(N)=O)C(=O)N[C@H](C(=O)NCC(=O)N[C@@H](CO)C(=O)N[C@@H](CC(N)=O)C(=O)N[C@H](C(=O)N1CCC[C@H]1C(N)=O)[C@@H](C)O)C(C)C)[C@@H](C)O)N(C)C(=O)CN(C)C(=O)[C@H](Cc1ccccc1)NC(=O)[C@H](CC(N)=O)NC(=O)[C@H](CC(N)=O)NC(=O)[C@H](CO)NC(=O)[C@H](CO)NC(=O)[C@H](Cc1c[nH]cn1)NC(=O)[C@H](Cc1c[nH]cn1)NC(=O)[C@H](CC(C)C)NC(=O)[C@H](Cc1ccccc1)NC(=O)[C@H](CCC(=O)O)NC(=O)[C@H](C)NC(=O)[C@H](CC(C)C)NC(=O)[C@H](CCCNC(=N)N)NC(=O)[C@H](CCC(N)=O)NC(=O)[C@@H](NC(=O)[C@H](C)NC(=O)[C@@H]1CSSC[C@H](NC(=O)[C@H](CCCNC(=N)N)NC(=O)CC[C@H](NC(=O)CCCCCCCCCCCCCCCCCCC(=O)O)C(=O)O)C(=O)N[C@@H](CC(N)=O)C(=O)N[C@@H]([C@@H](C)O)C(=O)N[C@@H](C)C(=O)N[C@@H]([C@@H](C)O)C(=O)N1)[C@@H](C)O` [Compound 176, [19CD]-isoGlu-RC()NTATC()ATQRLAEFLHHSSNNF-Gly(Me)-Ile(Me)-LPPTNVGSNTP-NH2] ({C20 diacid-γGlu}-RCNTATCATQRLAEFLHHSSNNF[Sar][NMeI]LPPTNVGSNTP-NH2; disulfide 2-7), in data set [1], the bioavailability turned out to be 81%. Also, the half-life in data set [1] (setting [4]) is 24.4 h; in data set [1] (setting [5]) it was 23.8 h.
